From patent US7671085B2, “Non-steroidal farnesoid X receptor modulators and methods for the use thereof” (The Salk Institute for Biological Studies, priority 2002, dated 2010)

How the values were obtained:
[1] = tested on: IBABP mRNA in HT29-FXRFL cells; experiment: Northern blot of IBABP mRNA in HT29 stable cell lines; assay type: cell-based, Human; settings: for concentration for maximal induction of IBABP mRNA: overnight treatment
Method: HepG2 or HT29-derived cell lines were typically cultured in medium containing superstripped FBS for 24 hr before the addition of a ligand or DMSO (vehicle) for an additional 24-48 hr. Total RNA was isolated using TRIzol reagent and was resolved (10 μg/lane) on a 1% agarose, 2.2 M formaldehyde gel, transferred to a nylon membrane (Hybond N^+; Amersham Biosciences, Inc.), and cross-linked to the membrane with UV light.
cDNA probes were radiolabeled with [α-^32P]dCTP using the highprime labeling kit (Amersham Biosciences, Inc.). Membranes were hybridized using the QuikHyb hybridization solution (Stratagene, La Jolla, Calif.) according to the manufacturer's protocol. Blots were normalized for variations of RNA loading by hybridization to a control probe, either, 18 S ribosomal cDNA, or the ribosomal protein 36B4. The RNA levels were quantitated using a PhosphorImager (ImageQuant software; Molecular Dynamics, Inc., Sunnyvale, Calif.) in addition to being exposed to X-ray film.
Human colon cells HT29 (FXR null until differentiated) were infected with retroviral vectors that expressed either FXR constructs and the puromycin-resistant gene or the puromycin-resistant gene alone. Puromycin resistant cells were isolated and pooled cell populations were propagated that harbored either the vector alone (HT29-BABE), overexpressed FXR full length (HT29-FXRFL), a non-functional FXR truncated at the AF2 region (HT29-FXR-AF2), or a constitutively active FXR that has the VP16 activation domain fused N-terminal of the protein (HT29-VP16-FXR). Confirmation of the successful establishment of the different stable cell lines was established via northern blot analysis of FXR message levels in the cells.
These observations verify the usefulness of this colon cell model system for studying the induction of FXR target genes.
The ability of the novel compounds identified herein to induce IBABP gene expression in this cell system was also examined. Total RNA from HT29 stable cells treated overnight with fexaramine, fexarine and fexarene was probed for IBABP gene expression.

mouse FXR and human RXR = target: T1, mouse FXR and human RXR (Mus musculus, UniProt Q60641); experiment: CV-1 transient transfection reporter gene assay, TK minimal promoter with ECRE or ER-8 FXRE; assay type: cell-based; settings: CV-1 cells; for concentration at which maximal activity is achieved: ECRE and ER-8 reporters; for activation of ECRE FXRE reporter: six copies of ECRE, TK minimal promoter; for activation of ER-8 FXRE reporter: two copies of ER-8, TK minimal promoter
T1 construct: expressed in transfected cells; host or cells: CV-1 cells
T1 sequence (Q60641 1-488): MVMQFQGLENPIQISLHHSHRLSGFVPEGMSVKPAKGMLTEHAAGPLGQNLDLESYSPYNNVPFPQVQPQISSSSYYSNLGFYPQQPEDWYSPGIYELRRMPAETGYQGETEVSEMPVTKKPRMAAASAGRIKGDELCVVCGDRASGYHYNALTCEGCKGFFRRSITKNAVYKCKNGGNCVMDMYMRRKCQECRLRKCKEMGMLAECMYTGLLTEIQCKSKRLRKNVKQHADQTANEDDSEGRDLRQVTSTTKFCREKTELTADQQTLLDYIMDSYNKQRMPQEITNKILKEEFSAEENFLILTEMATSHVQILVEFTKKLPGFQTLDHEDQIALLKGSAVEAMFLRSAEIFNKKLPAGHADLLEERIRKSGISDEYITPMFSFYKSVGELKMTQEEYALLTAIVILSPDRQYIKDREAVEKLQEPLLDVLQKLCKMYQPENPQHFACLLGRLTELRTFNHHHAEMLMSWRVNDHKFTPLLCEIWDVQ
T1 sequence (P19793 1-462 partner): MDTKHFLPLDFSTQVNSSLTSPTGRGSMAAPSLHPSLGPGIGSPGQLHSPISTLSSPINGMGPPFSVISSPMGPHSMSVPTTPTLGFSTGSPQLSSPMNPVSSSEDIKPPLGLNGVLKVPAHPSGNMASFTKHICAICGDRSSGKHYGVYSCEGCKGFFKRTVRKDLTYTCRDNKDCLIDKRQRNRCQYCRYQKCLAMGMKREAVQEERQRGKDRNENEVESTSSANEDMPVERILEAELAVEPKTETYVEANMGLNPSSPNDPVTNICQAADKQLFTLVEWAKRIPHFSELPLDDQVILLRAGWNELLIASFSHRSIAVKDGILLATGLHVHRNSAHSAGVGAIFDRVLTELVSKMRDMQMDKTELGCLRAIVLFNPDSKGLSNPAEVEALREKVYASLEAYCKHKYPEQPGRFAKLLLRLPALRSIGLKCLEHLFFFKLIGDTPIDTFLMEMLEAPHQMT
Method: The ability of these compounds to activate the receptor in a number of different cell-based reporter gene assays was then determined. […] CV-1 cells were transiently transfected with an expression plasmid for mouse FXR and human RXR with a thymidine kinase (TK) minimal promoter reporter vector containing either no copies or six copies of the ecdysone response element (ECRE), a well-characterized FXR response element (FXRE). In addition, two copies of the recently identified FXRE everted repeat separated by 8 nucleotides (ER-8) was also studied (see, for example, Laffitte et al. (2000). Identification of the DNA binding specificity and potential target genes for the farnesoid X-activated receptor. J Biol Chem. 275(14), 10638-47; Kast et al. (2002). Regulation of multidrug resistance-associated protein 2 (ABCC2) by the nuclear receptors pregnane X receptor, farnesoid X-activated receptor, and constitutive androstane receptor. J Biol Chem. 277(4), 2908-15).

[2] = HT29-BABE or HT29-FXR-AF2 cell lines

Compound	induction of IBABP mRNA, in words [1, 2]	induction of IBABP mRNA, in words ([1]; HT29-FXRFL cells)	concentration for maximal induction of IBABP mRNA ([1]; HT29-FXRFL cells) [µM]	concentration at which maximal activity is achieved (mouse FXR and human RXR) [µM]	activation of ECRE FXRE reporter (mouse FXR and human RXR) [fold]	activation of ER-8 FXRE reporter (mouse FXR and human RXR) [fold]
COC(=O)C=Cc1cccc(N(Cc2ccc(C=Cc3ccccc3)cc2)C(=O)C2CCCCC2)c1 [Compound 121]	No induction	induced expression of the IBABP mRNA	1	1	100	4
COC(=O)/C=C/c1cccc(N(Cc2ccc(-c3ccc4c(c3)OCO4)cc2)C(=O)C2CCCCC2)c1 [Compound 244]	No induction	induced expression of the IBABP mRNA	1	1	100	4
COC(=O)/C=C/c1cccc(N(Cc2ccc(-c3ccc(N(C)C)cc3)cc2)C(=O)C2CCCCC2)c1 [Compound 259]	No induction	induced expression of the IBABP mRNA	1	1	100	4
